Counter-ions that a name gives are not always drawn.
How the values were obtained:
[1] = target: T1, SIK2 recombinant protein (Homo sapiens, UniProt Q9H0K1); test: Radiometric protein kinase assay (33PanQinase Activity Assay) for inhibition of SIK2 kinase; format: biochemical; settings: for remaining activity at 0.1 µM / remaining activity at 1 µM: 1 h; for remaining activity at 0.1 µM: compound at 0.1 μM; for remaining activity at 1 µM: compound at 1 μM; for IC50: ATP 1.0 μM, SIK2 0.3 nM, substrate RBER-Chktide
T1 construct: purchased Invitrogen Corporation
Protocol: The inhibition of SIK2 kinase was assessed using SIK2 recombinant protein in an in vitro peptide-based kinase assay.
A radiometric protein kinase assay (^33PanQinase® Activity Assay) is used for measuring the kinase activity. All assays are performed in 96-well FlashPlates™ from Perkin Elmer in a 50 μl reaction volume. The reaction cocktail is […] in 4 steps in the following order: • 10 μl of non-radioactive ATP solution (in H2O) • 25 μl of assay buffer/[γ-^33P]-ATP mixture • 5 μl of test sample in 10% DMSO • 10 μl of enzyme/substrate mixture
The assay for SIK2 contains 70 mM HEPES-NaOH pH 7.5, 3 mM MgCl2, 3 mM MnCl2, 3 μM Na-orthovanadate, 1.2 mM DTT, 50 μg/ml PEG20000, ATP (1.0 μM), [γ-^33P]-ATP (approx. 5×10^05 cpm per well), protein kinase SIK2 (0.3 nM) and substrate (RBER-Chktide), 2.0 μg/50 μl).
The kinase is obtained from Invitrogen Corporation.
The reaction cocktails were incubated at 30° C. for 60 minutes. The reaction was stopped with 50 μl of 2% (v/v) H3PO4, plates were aspirated and washed two times with 200 μl 0.9% (w/v) NaCl. Incorporation of ^33Pi (counting of “cpm”) was determined with a microplate scintillation counter.
The compounds are dissolved to 10 mM in DMSO. Where needed, solutions are sonicated in a bath sonicator.
Table 4 provides the pIC50 values and % Remaining activity values at two concentrations (1 μM and 0.1 μM) of the compounds according to the invention, obtained using the above mentioned kinase assay.

T1 sequence (Q9H0K1 whole entry): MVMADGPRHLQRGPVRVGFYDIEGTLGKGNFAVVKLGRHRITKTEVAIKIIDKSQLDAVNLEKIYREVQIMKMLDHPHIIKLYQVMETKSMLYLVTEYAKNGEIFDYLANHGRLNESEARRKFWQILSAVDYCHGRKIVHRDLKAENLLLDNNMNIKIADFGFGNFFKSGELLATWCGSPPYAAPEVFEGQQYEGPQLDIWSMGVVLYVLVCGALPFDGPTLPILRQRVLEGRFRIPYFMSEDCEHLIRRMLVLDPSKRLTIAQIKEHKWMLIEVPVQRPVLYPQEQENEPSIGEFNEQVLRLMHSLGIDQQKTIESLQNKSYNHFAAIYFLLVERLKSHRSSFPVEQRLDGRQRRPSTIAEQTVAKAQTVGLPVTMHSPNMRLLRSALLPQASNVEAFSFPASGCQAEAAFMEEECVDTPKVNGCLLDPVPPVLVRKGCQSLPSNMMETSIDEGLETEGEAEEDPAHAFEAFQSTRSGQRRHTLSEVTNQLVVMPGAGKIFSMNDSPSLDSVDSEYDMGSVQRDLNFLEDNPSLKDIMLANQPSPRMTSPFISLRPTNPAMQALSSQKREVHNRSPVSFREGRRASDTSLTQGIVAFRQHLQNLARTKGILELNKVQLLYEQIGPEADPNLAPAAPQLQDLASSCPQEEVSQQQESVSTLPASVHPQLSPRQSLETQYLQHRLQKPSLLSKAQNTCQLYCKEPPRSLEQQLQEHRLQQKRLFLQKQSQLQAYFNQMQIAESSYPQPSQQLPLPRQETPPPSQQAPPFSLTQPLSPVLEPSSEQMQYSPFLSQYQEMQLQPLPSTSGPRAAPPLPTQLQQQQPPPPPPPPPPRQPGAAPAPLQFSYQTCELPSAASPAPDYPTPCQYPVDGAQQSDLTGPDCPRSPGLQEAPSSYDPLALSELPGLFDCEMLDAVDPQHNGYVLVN

SMILES: OCc1cc2cc(c1)-c1cnn3ccc(nc13)NCCCNCCN2 [Compound H100]
- remaining activity at 0.1 µM [1]: < 50%
- remaining activity at 1 µM [1]: < 50%
- IC50 [1]: < 100 nM

SMILES: FC(F)(F)c1cc2cc(c1)-c1cnn3ccc(nc13)NCCCNCCO2 [Compound H90]
- melting point: > 300 °C
- remaining activity at 0.1 µM [1]: < 50%
- remaining activity at 1 µM [1]: < 50%
- IC50 [1]: < 100 nM

SMILES: Fc1cc2cc(c1)-c1cnn3ccc(nc13)NCCN(C1CCNCC1)CCO2 [Compound H83]
- melting point: 246.2 °C
- remaining activity at 0.1 µM [1]: < 50%
- remaining activity at 1 µM [1]: < 50%
- IC50 [1]: < 100 nM

SMILES: c1cc2cc(c1)-c1cnc3ccc(nn13)SCCNCCCO2 [Compound H99]
- melting point: 125.6 °C
- IC50 [1]: 100 to 1000 nM

SMILES: CNCCN1CCOc2cccc(c2)-c2cnn3ccc(nc23)OCC1 [Compound H86]
- remaining activity at 0.1 µM [1]: < 50%
- remaining activity at 1 µM [1]: < 50%
- IC50 [1]: < 100 nM

SMILES: NCCN1CCNc2ccn3ncc(c3n2)-c2cccc(c2)OCC1 [Compound H84]
- melting point: > 300 °C
- remaining activity at 0.1 µM [1]: < 50%
- remaining activity at 1 µM [1]: < 50%
- IC50 [1]: < 100 nM

SMILES: c1cc2cc(c1)-c1cnn3ccc(nc13)OCCCNCCCN2 [Compound H89]
- remaining activity at 0.1 µM [1]: > 50%
- remaining activity at 1 µM [1]: < 50%
- IC50 [1]: < 100 nM

SMILES: OCCN1CCNc2ccn3ncc(c3n2)-c2cc(Cl)cc(c2)OCC1 [Compound H97]
- melting point: 285.2 °C
- remaining activity at 0.1 µM [1]: < 50%
- remaining activity at 1 µM [1]: < 50%
- IC50 [1]: < 100 nM

SMILES: Cc1cc2cc(c1)-c1cnn3ccc(nc13)NCCCN(C)CCO2 [Compound H93]
- remaining activity at 0.1 µM [1]: < 50%
- remaining activity at 1 µM [1]: < 50%
- IC50 [1]: < 100 nM

SMILES: c1cc2cc(c1)-c1cnc3ccc(nn13)SCCNCCCN2 [Compound H85]
- melting point: 173.1 °C
- remaining activity at 0.1 µM [1]: < 50%
- remaining activity at 1 µM [1]: < 50%
- IC50 [1]: < 100 nM

SMILES: c1cc2cc(c1)-c1cnn3ccc(nc13)OCCCNCCCN2 (as salt: HCl) [Compound H89]
- melting point: 273.3 °C

SMILES: COCc1cc2cc(c1)-c1cnn3ccc(nc13)NCCNCCO2 [Compound H78]
- remaining activity at 0.1 µM [1]: < 50%
- remaining activity at 1 µM [1]: < 50%
- IC50 [1]: < 100 nM

SMILES: Cc1ccc2cc1OCCNCCNc1ccn3ncc-2c3n1 [Compound H82]
- melting point: > 300 °C
- remaining activity at 0.1 µM [1]: < 50%
- remaining activity at 1 µM [1]: < 50%
- IC50 [1]: < 100 nM

SMILES: OCc1cc2cc(c1)-c1cnn3ccc(nc13)NCCN(CC1CC1)CCO2 [Compound H81]
- melting point: 179.1 °C
- remaining activity at 0.1 µM [1]: < 50%
- remaining activity at 1 µM [1]: < 50%
- IC50 [1]: < 100 nM

SMILES: c1cc2cc(c1)-c1cnn3ccc(nc13)NCCCNCCCO2 [Compound H88]
- remaining activity at 0.1 µM [1]: < 50%
- remaining activity at 1 µM [1]: < 50%
- IC50 [1]: < 100 nM

SMILES: O=C(C1CC1)N1CCNc2ccn3ncc(c3n2)-c2cc(CO)cc(c2)OCC1 [Compound B75]
- remaining activity at 0.1 µM [1]: < 50%
- remaining activity at 1 µM [1]: < 50%

SMILES: OCc1cc2cc(c1)-c1cnn3ccc(nc13)NCCCNCCO2 [Compound H96]
- remaining activity at 0.1 µM [1]: < 50%
- remaining activity at 1 µM [1]: < 50%
- IC50 [1]: < 100 nM

SMILES: CNCCN1CCOc2cccc(c2)-c2cnn3ccc(nc23)OCC1 (as salt: HCl) [Compound H86]
- melting point: 247 °C

SMILES: OCc1cc2cc(c1)-c1cnn3ccc(nc13)NCCNCCO2 [Compound H80]
- IC50 [1]: < 100 nM

SMILES: c1cc2cc(c1)-c1cnn3ccc(nc13)OCCCNCCO2 [Compound H87]
- remaining activity at 0.1 µM [1]: > 50%
- remaining activity at 1 µM [1]: < 50%
- IC50 [1]: < 100 nM

SMILES: CN(C)CCNC(=O)N1CCNCCOc2cccc(c2)-c2cnn3ccc1nc23 [Compound A11]
- melting point: > 300 °C
- remaining activity at 0.1 µM [1]: < 50%
- remaining activity at 1 µM [1]: < 50%
- IC50 [1]: < 100 nM

SMILES: CN1CCCNc2ccn3ncc(c3n2)-c2cc(cc(C(F)(F)F)c2)OCC1 [Compound H91]
- remaining activity at 0.1 µM [1]: < 50%
- remaining activity at 1 µM [1]: < 50%
- IC50 [1]: < 100 nM

SMILES: Cc1cc2cc(c1)-c1cnn3ccc(nc13)NCCCNCCO2 [Compound H92]
- melting point: > 300 °C
- remaining activity at 0.1 µM [1]: < 50%
- remaining activity at 1 µM [1]: < 50%
- IC50 [1]: < 100 nM

SMILES: COCc1cc2cc(c1)-c1cnn3ccc(nc13)NCCN(C(=O)C1CC1)CCO2 [Compound H79]
- melting point: > 300 °C
- IC50 [1]: < 100 nM

SMILES: c1cc2cc(c1)-c1cnn3ccc(nc13)SCCNCCCO2 [Compound H98]
- melting point: 178.1 °C
- remaining activity at 0.1 µM [1]: < 50%
- remaining activity at 1 µM [1]: < 50%
- IC50 [1]: 100 to 1000 nM

SMILES: CCN1CCCNc2ccn3ncc(c3n2)-c2cc(C)cc(c2)OCC1 [Compound H95]
- remaining activity at 0.1 µM [1]: < 50%
- remaining activity at 1 µM [1]: < 50%
- IC50 [1]: < 100 nM

SMILES: CN1CCCOc2cccc(c2)-c2cnn3ccc(nc23)NCC1 [Compound H94]
- melting point: 288 °C
- IC50 [1]: < 100 nM

— patent publication US9586975B2, “Macrocyclic salt-inducible kinase inhibitors” (ONCODESIGN S.A., priority 2013, dated 2017)
